{
  "source": "patent EP1285920A1",
  "about": "“C10 Ester sustituted taxanes as antitumor agents” (Florida State University Research Foundation, Inc., priority 2001, dated 2003)",
  "tested_on": "SKMES lung carcinoma",
  "assay": "In vivo evaluation of compound 0503 against SKMES human lung carcinoma xenograft, i.v. dose range (Example 20)",
  "conditions": "for % Total Response: complete or partial responses among evaluable animals; for MDS (n): mean days of survival until neoplasm reached 2.0 g, 6 mice, terminated Day 60; for survival extension / MDS: other mice; for MDS: tumor 2.0 g",
  "description": "The antitumor compound was prepared in a vehicle of 10% ethanol and 90% Liposyn III in the manner as described for Emulsion 3 of Example 9.\nTreatment groups consisted of: vehicle only (Group 1), and antitumor compound 0503 (dosages of 104 mg/kg, 72.8 mg/kg, 41.6 mg/kg, and 10.4 mg/kg; Groups 2-5, respectively).",
  "key": {"[1]": {"conditions": "10.4 mg/kg, single IV bolus Day 1"}, "[2]": {"conditions": "10.4 mg/kg, single IV bolus Day 1, number of mice of 6, Day 60"}, "[3]": {"conditions": "41.6 mg/kg, single IV bolus Day 1"}, "[4]": {"conditions": "41.6 mg/kg, single IV bolus Day 1, number of mice of 6, Day 60"}, "[5]": {"conditions": "72.8 mg/kg, single IV bolus Day 1"}, "[6]": {"conditions": "72.8 mg/kg, single IV bolus Day 1, number of mice of 6, Day 60"}, "[7]": {"conditions": "104 mg/kg, single IV bolus Day 1"}, "[8]": {"conditions": "104 mg/kg, single IV bolus Day 1, number of mice of 6, Day 60"}, "[9]": {"conditions": "SKMES, 72.8 mg/kg single IV bolus (Group 3)"}, "[10]": {"conditions": "SKMES, 72.8 mg/kg single IV bolus (Group 3), six mice"}, "[11]": {"conditions": "SKMES, 104 mg/kg single IV bolus (Group 2)"}},
  "data": [
    {"compound": "CCC(=O)O[C@H]1C(=O)[C@@]2(C)[C@H]([C@H](OC(=O)c3ccccc3)[C@]3(O)C[C@H](OC(=O)[C@H](O)[C@@H](NC(=O)OC(C)(C)C)c4ccccn4)C(C)=C1C3(C)C)[C@]1(OC(C)=O)CO[C@@H]1C[C@@H]2O", "note": "[Compound 0503]", "values": [
      {"measurement": "% Total Response", "setting": "[1]", "value": 0, "unit": "%"},
      {"measurement": "MDS (n)", "setting": "[1]", "value": "26.0 ± 2.5 (6) days"},
      {"measurement": "Toxic Deaths", "setting": "10.4 mg/kg, single IV bolus Day 1, number of mice of 6", "value": 0},
      {"measurement": "Partial Response", "setting": "[2]", "value": 0},
      {"measurement": "Stable Disease", "setting": "[2]", "value": 0},
      {"measurement": "Survivors", "setting": "[2]", "value": 0},
      {"measurement": "% Total Response", "setting": "[3]", "value": 0, "unit": "%"},
      {"measurement": "MDS (n)", "setting": "[3]", "value": "33.8 ± 3.4 (5) days"},
      {"measurement": "Toxic Deaths", "setting": "41.6 mg/kg, single IV bolus Day 1, number of mice of 6", "value": 0},
      {"measurement": "Partial Response", "setting": "[4]", "value": 0},
      {"measurement": "Stable Disease", "setting": "[4]", "value": 1},
      {"measurement": "Survivors", "setting": "[4]", "value": 1},
      {"measurement": "% Total Response", "setting": "[5]", "value": 33.3, "unit": "%"},
      {"measurement": "MDS (n)", "setting": "[5]", "value": "37.4 ± 5.2 (4) days"},
      {"measurement": "Toxic Deaths", "setting": "72.8 mg/kg, single IV bolus Day 1, number of mice of 6", "value": 0},
      {"measurement": "Partial Response", "setting": "[6]", "value": 1},
      {"measurement": "Stable Disease", "setting": "[6]", "value": 0},
      {"measurement": "Survivors", "setting": "[6]", "value": 2},
      {"measurement": "% Total Response", "setting": "[7]", "value": 50.0, "unit": "%"},
      {"measurement": "MDS (n)", "setting": "[7]", "value": "46.6 ± 3.2 (3) days"},
      {"measurement": "Toxic Deaths", "setting": "104 mg/kg, single IV bolus Day 1, number of mice of 6", "value": 0},
      {"measurement": "Partial Response", "setting": "[8]", "value": 0},
      {"measurement": "Stable Disease", "setting": "[8]", "value": 0},
      {"measurement": "Survivors", "setting": "[8]", "value": 3},
      {"measurement": "survival extension", "setting": "[9]", "value": 114, "unit": "%"},
      {"measurement": "MDS", "setting": "[9]", "value": 37.4, "unit": "days"},
      {"measurement": "Complete Response", "setting": "[10]", "value": "One"},
      {"measurement": "Partial Response", "setting": "[10]", "value": "one"},
      {"measurement": "complete tumor regressions", "setting": "SKMES, 104 mg/kg single IV bolus (Group 2), 10% ethanol, 90% Liposyn III, six mice", "value": "Three"},
      {"measurement": "survival extension", "setting": "[11]", "value": 167, "unit": "%"},
      {"measurement": "MDS", "setting": "[11]", "value": 46.6, "unit": "days"}
    ]}
  ]
}
